Reference: publication PMC11191095, “QSAR Reveals Decreased Lipophilicity of Polar Residues Determines the Selectivity of Antimicrobial Peptide Activity” (ACS Omega, 2024)
Where a SMILES comes first, the peptide text is derived from it.

Key:
Assay in all cases: microbe, parasite or virus in culture
[1] = test system: C. auris TDG 1912; format: cell-based, Candida auris; conditions: C. auris TDG 1912
In short: (§1)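 Peptides 128→2 μg/mL, 2-fold series; inoculum ~5 × 10^5 CFU/mL from overnight culture (OD600 0.01, mixed 1:1). MHB non-cation-adjusted for bacteria, RPMI 1640 + 2% glucose for fungi. 37 °C, 20 h, OD600. MIC50/MIC90 at 50%/90% inhibition; n ≥ 3.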

[2] = test system: S. aureus (MSSA) ATCC 9144; format: cell-based, Staphylococcus aureus; conditions: S. aureus (MSSA) ATCC 9144 (S)
In short: as §1

[3] = test system: S. aureus (MRSA) NCTC 13616; format: cell-based, Staphylococcus aureus; conditions: S. aureus (MRSA) NCTC 13616 (R)
In short: as §1

[4] = test system: S. aureus (MRSA) USA300; format: cell-based, Staphylococcus aureus; conditions: S. aureus (MRSA) USA300 (R)
In short: as §1

[5] = test system: C. glabrata NCPF 8018; format: cell-based; conditions: C. glabrata NCPF 8018
In short: as §1

[6] = test system: C. parapsilosis NCPF 3209; format: cell-based; conditions: C. parapsilosis NCPF 3209
In short: as §1

[7] = test system: C. albicans NCPF 3281; format: cell-based; conditions: C. albicans NCPF 3281
In short: as §1

[8] = test system: C. tropicalis NCPF 8760; format: cell-based; conditions: C. tropicalis NCPF 8760
In short: as §1

[9] = test system: C. krusei NCPF 3876; format: cell-based; conditions: C. krusei NCPF 3876
In short: as §1

[10] = test system: A. baumannii AYE; format: cell-based, Acinetobacter baumannii; conditions: A. baumannii AYE (R)
In short: as §1

[11] = test system: A. baumannii ATCC 17978; format: cell-based, Acinetobacter baumannii; conditions: A. baumannii ATCC 17978 (S)
In short: as §1

[12] = test system: K. pneumoniae M6; format: cell-based, Klebsiella pneumoniae; conditions: K. pneumoniae M6 (S)
In short: as §1

[13] = test system: K. pneumoniae NCTC 13368; format: cell-based, Klebsiella pneumoniae; conditions: K. pneumoniae NCTC 13368 (R)
In short: as §1

[14] = test system: P. aeruginosa NCTC 13437; format: cell-based, Pseudomonas aeruginosa; conditions: P. aeruginosa NCTC 13437 (R)
In short: as §1

[15] = test system: E. coli NCTC 12923; format: cell-based, Escherichia coli; conditions: E. coli NCTC 12923 (S)
In short: as §1

[16] = test system: E. coli LEC001; format: cell-based, Escherichia coli; conditions: E. coli LEC001 (R)
In short: as §1

[17] = MHB, 37 °C, 20 h, OD600, min. three biological repeats
[18] = 50% growth inhibition, RPMI 1640 + 2% glucose, 37 °C, 20 h
[19] = 90% growth inhibition, RPMI 1640 + 2% glucose, 37 °C, 20 h
[20] = MHB, ~5×10^5 CFU/mL, 37 °C, 20 h, OD600, min. three biological repeats

CC(C)C[C@H](NC(=O)[C@H](CCCCN)NC(=O)[C@H](CO)NC(=O)[C@H](CCCCN)NC(=O)[C@H](Cc1c[nH]c2ccccc12)NC(=O)[C@H](C)NC(=O)[C@H](CCCCN)NC(=O)[C@@H](N)CCCCN)C(=O)N[C@@H](C)C(=O)N[C@@H](CCCCN)C(=O)N[C@@H](CCCCN)C(=O)N[C@@H](CC(C)C)C(=O)N[C@@H](CCCNC(=N)N)C(=O)N[C@@H](C)C(=O)N[C@@H](CCCCN)C(=O)NCC(=O)N[C@@H](CCCCN)C(N)=O [PS-PB-14a] (H-KKAWKSKLAKKLRAKGK-NH2)
> 128 µg/mL: Modal MIC50 ([1]; 50% growth inhibition, RPMI 1640 + 2% glucose, 37 °C, 20 h, OD600) | Modal MIC90 ([1]; 90% growth inhibition, RPMI 1640 + 2% glucose, 37 °C, 20 h, OD600) | Modal MIC [2, 17] | Modal MIC [3, 17] | Modal MIC [4, 17] | Modal MIC50 [5, 18] | Modal MIC90 [5, 19] | Modal MIC50 [6, 18] | Modal MIC90 [6, 19] | Modal MIC50 [7, 18] | Modal MIC90 [7, 19] | Modal MIC50 [9, 18] | Modal MIC90 [9, 19] | Modal MIC [10, 17] | Modal MIC [11, 17] | Modal MIC [12, 17] | Modal MIC [13, 17] | Modal MIC [14, 17] | Modal MIC [15, 20] | Modal MIC [16, 17]
> 63.8 µM: Modal MIC50 ([1]; shown in µM) | Modal MIC90 ([1]; shown in µM) | Modal MIC ([2]; shown in µM) | Modal MIC ([3]; shown in µM) | Modal MIC ([4]; shown in µM) | Modal MIC50 ([5]; shown in µM) | Modal MIC90 ([5]; shown in µM) | Modal MIC50 ([6]; shown in µM) | Modal MIC90 ([6]; shown in µM) | Modal MIC50 ([7]; shown in µM) | Modal MIC90 ([7]; shown in µM) | Modal MIC50 ([9]; shown in µM) | Modal MIC90 ([9]; shown in µM) | Modal MIC ([10]; shown in µM) | Modal MIC ([11]; shown in µM) | Modal MIC ([12]; shown in µM) | Modal MIC ([13]; shown in µM) | Modal MIC ([14]; shown in µM) | Modal MIC ([15]; shown in µM) | Modal MIC ([16]; shown in µM)
31.9 µM: Modal MIC50 ([8]; shown in µM) | Modal MIC90 ([8]; shown in µM)

KCLTLRSLKKTLKFCASGRT-NH2 [X1-20a, novel amidated frog AMP derivative, Xenopus laevis]
13.8 µM: Modal MIC90 ([8]; shown in µM) | Modal MIC ([12]; shown in µM)
8 µg/mL: Modal MIC [15, 20]
64 µg/mL: Modal MIC50 [9, 18] | Modal MIC90 [9, 19] | Modal MIC [13, 17]
6.9 µM: Modal MIC ([2]; shown in µM) | Modal MIC50 ([8]; shown in µM) | Modal MIC ([10]; shown in µM) | Modal MIC ([11]; shown in µM)
16 µg/mL: Modal MIC [2, 17] | Modal MIC50 [8, 18] | Modal MIC [10, 17] | Modal MIC [11, 17]
> 128 µg/mL: Modal MIC [3, 17] | Modal MIC [4, 17] | Modal MIC50 [5, 18] | Modal MIC90 [5, 19] | Modal MIC50 [6, 18] | Modal MIC90 [6, 19] | Modal MIC50 [7, 18] | Modal MIC90 [7, 19] | Modal MIC [14, 17] | Modal MIC [16, 17]
32 µg/mL: Modal MIC90 [8, 19] | Modal MIC [12, 17]
27.5 µM: Modal MIC50 ([9]; shown in µM) | Modal MIC90 ([9]; shown in µM) | Modal MIC ([13]; shown in µM)
> 55 µM: Modal MIC50 ([1]; shown in µM) | Modal MIC90 ([1]; shown in µM) | Modal MIC ([3]; shown in µM) | Modal MIC ([4]; shown in µM) | Modal MIC50 ([5]; shown in µM) | Modal MIC90 ([5]; shown in µM) | Modal MIC50 ([6]; shown in µM) | Modal MIC90 ([6]; shown in µM) | Modal MIC50 ([7]; shown in µM) | Modal MIC90 ([7]; shown in µM) | Modal MIC ([14]; shown in µM) | Modal MIC ([16]; shown in µM)
3.4 µM: Modal MIC ([15]; shown in µM)
